# Laboratory results reported in PubChem BioAssay AID1845199 (Molecular Pharmacology Branch, DTP, NCI, 2023).
# Tested on: 556581-035-R-J1 tumor spheroid viability, % test/control
# Experiment: Anticancer human tumor 556581-035-R-J1 patient-derived ovarian carcinoma cell line growth inhibition
# Settings: spheroids with HUVEC and MSC; for IC50: curve of first compound; for viability, T/C: stronger effect = lower value
# Text: Multicellular complex tumor spheroid response to DNA repair inhibitors in combination with DNA-damaging drugs
# This study explores the anticancer activities of DNA-damaging drugs and inhibitors of DNA damage repair, both as single agents and in combinations. Complex tumor spheroids comprised of malignant cells, endothelial cells and mesenchymal stem cells served as an in vitro model for human solid tumors. This model system incorporates physiologically relevant features and patient-derived or established malignant cell lines with clinically relevant genetic alterations from many tumor types. Twenty-six patient-derived or established malignant cell lines were evaluated representing sarcoma, melanoma, small cell lung cancer (SCLC), non-small cell lung cancer (NSCLC), as well as bladder, ovarian and pancreatic cancers. The concentration ranges selected for each drug and investigational agent were based upon clinically achievable concentrations if the clinical Cmax of the agent was known.
# Compounds. The drugs and compounds olaparib (NSC753686), talazoparib (NSC767125), berzosertib (NSC777718), elimusertib (NSC800525), nedisertib (NSC802822), VX-984 (NSC792969), AZD-1390 (NSC803789), temozolomide (NSC362856), topotecan (NSC609699), trabectedin (NSC813783), staurosporine (NSC755774), and gemcitabine (NSC613327) were obtained from the National Cancer Institute (NCI) Developmental Therapeutics Program Chemical Repository. The FDA-approved anticancer drug set is available from the Developmental Therapeutics Program at https://dtp.cancer.gov/organization/dscb/obtaining/available_plates.htm. […] The stock solutions were prepared in dimethyl sulfoxide (DMSO, Sigma-Aldrich, St. Louis, MO, cat. D2650) at 400-fold the tested concentration and stored at -70 degrees C. Prior to their use, the stock solutions were diluted in fresh medium and the final DMSO concentration in the assay was 0.25% (v/v). All drugs and investigational agents were tested over a range starting from a high concentration at or near the clinical Cmax and decreasing in half-log increments. If the clinical Cmax for an agent had not been determined, the highest concentration tested was 10 microM.
# Cell Lines. The patient-derived cancer cell (PDC) lines: 156681-154-R-J1-PDC, 283228-195-R-J1-PDC, 287954-098-R-J1-PDC, 292921-168-R-J2-PDC, 349418-098-R-PDC, 425362-245-T-J1-PDC, 556581-035-R-J1-PDC, and BL0293-F563-PDC were received from the NCI Patient-Derived Models Repository (PDMR, https://pdmr.cancer.gov). The established cell lines HS-SY-2 (RRID:CVCL_8719), MPNST, and SYO-1 (RRID:CVCL_7146) were obtained from the Sloan Kettering Institute. The alveolar soft parts sarcoma cell line ASPS-1 (RRID:CVCL_S738) was established at the NCI and grown from internal seed stocks. The following established cell lines were purchased from the American Type Culture Collection (ATCC, Manassas, VA): G-401 (ATCC, cat. CRL-1441, RRID:CVCL_0270), SW982 (ATCC, cat. HTB-93, RRID:CVCL_1734), VA-ES-BJ (ATCC, cat. CRL-2138, RRID:CVCL_1785), NCI-H719 (ATCC, cat. CRL-5837, RRID:CVCL_1582), NCI-H196 (ATCC, cat. CRL-5823, RRID:CVCL_1509), NCI-H841 (ATCC, cat. CRL-5845, RRID:CVCL_1595), NCI-H1618 (ATCC, cat. CRL-5879, RRID:CVCL_1480), NCI-H1876 (ATCC, cat. CRL-5902, RRID:CVCL_1503), DMS 114 (ATCC, cat. CRL-2066; RRID:CVCL_1174), NCI-H211 (ATCC, cat. CRL-5824; RRID:CVCL_1529), and SW 1271 (ATCC, cat. CRL-2177, RRID:CVCL_1716). The small cell lung cancer cell line COR-L88 was purchased from Sigma-Aldrich (cat. 92031917-1VL, RRID:CVCL_1141). The non-small cell lung cancer cell lines NCI-H226 (RRID:CVCL_1544) and NCI-H322M (RRID:CVCL_1557) were established at the NCI and grown from internal seed stocks. Pooled donor human umbilical vein endothelial cells (HUVEC, Lonza, cat. CC-2519) and human mesenchymal stem cells (hMSC, Lonza, cat. PT-2501) were purchased from Lonza (Walkersville, MD).
# Cell Culture. All cells were maintained in an incubator at 37 degrees C and 5% CO2 with 95% humidity. […]
# [1] = second compound 0.003 µM, first compound 0.00949 µM
# [2] = second compound 0.003 µM, first compound 0.03 µM
# [3] = second compound 0.003 µM, first compound 0.0949 µM
# [4] = second compound 0.003 µM, first compound 0.3 µM
# [5] = second compound 0.003 µM, first compound 0.949 µM
# [6] = second compound 0.003 µM, first compound 3 µM
# [7] = second compound 0.00949 µM, first compound 0.00949 µM
# [8] = second compound 0.00949 µM, first compound 0.03 µM
# [9] = second compound 0.00949 µM, first compound 0.0949 µM
# [10] = second compound 0.00949 µM, first compound 0.3 µM
# [11] = second compound 0.00949 µM, first compound 0.949 µM
# [12] = second compound 0.00949 µM, first compound 3 µM
# [13] = second compound 0.03 µM, first compound 0.00949 µM
# [14] = second compound 0.03 µM, first compound 0.03 µM
# [15] = second compound 0.03 µM, first compound 0.0949 µM
# [16] = second compound 0.03 µM, first compound 0.3 µM
# [17] = second compound 0.03 µM, first compound 0.949 µM
# [18] = second compound 0.03 µM, first compound 3 µM
# [19] = second compound 0.0949 µM, first compound 0.00949 µM
# [20] = second compound 0.0949 µM, first compound 0.03 µM
# [21] = second compound 0.0949 µM, first compound 0.0949 µM
# [22] = second compound 0.0949 µM, first compound 0.3 µM
# [23] = second compound 0.0949 µM, first compound 0.949 µM
# [24] = second compound 0.0949 µM, first compound 3 µM
# [25] = second compound 0.3 µM, first compound 0.00949 µM
# [26] = second compound 0.3 µM, first compound 0.03 µM
# [27] = second compound 0.3 µM, first compound 0.0949 µM
# [28] = second compound 0.3 µM, first compound 0.3 µM
# [29] = second compound 0.3 µM, first compound 0.949 µM
# [30] = second compound 0.3 µM, first compound 3 µM
# 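Further: spheroids exposed to compounds for 7 days before viability read.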
Structure (SMILES),IC50 (second compound 0.003 µM) [µM],IC50 (second compound 0.00949 µM) [µM],IC50 (second compound 0.03 µM) [µM],IC50 (second compound 0.0949 µM) [µM],IC50 (second compound 0.3 µM) [µM],"viability, T/C [1] [%]","viability, T/C [2] [%]","viability, T/C [3] [%]","viability, T/C [4] [%]","viability, T/C [5] [%]","viability, T/C [6] [%]","viability, T/C [7] [%]","viability, T/C [8] [%]","viability, T/C [9] [%]","viability, T/C [10] [%]","viability, T/C [11] [%]","viability, T/C [12] [%]","viability, T/C [13] [%]","viability, T/C [14] [%]","viability, T/C [15] [%]",further results
CNCc1ccc(-c2cc(-c3nc(-c4ccc(S(=O)(=O)C(C)C)cc4)cnc3N)on2)cc1 + CC[C@@]1(O)C(=O)OCc2c1cc1n(c2=O)Cc2cc3c(CN(C)C)c(O)ccc3nc2-1,1.38,1.17,0.854,0.27,< 0.00949,101,94.6,100,104,67.6,13.7,88.7,90.5,87.1,93.6,59,9.61,83.7,84.7,92.4,"viability, T/C [16]: 75%; viability, T/C [17]: 47.8%; viability, T/C [18]: 9.43%; viability, T/C [19]: 64.4%; viability, T/C [20]: 67%; viability, T/C [21]: 59%; viability, T/C [22]: 47.6%; viability, T/C [23]: 31.3%; viability, T/C [24]: 1.58%; viability, T/C [25]: 16.8%; viability, T/C [26]: 15.9%; viability, T/C [27]: 14.3%; viability, T/C [28]: 11.8%; viability, T/C [29]: 8.45%; viability, T/C [30]: 0.85%"
Cc1sc2c(c1C)C(c1ccc(Cl)cc1)=NC(CC(=O)Nc1ccc(O)cc1)c1nnc(C)n1-2 (stereo not given) + CC[C@@]1(O)C(=O)OCc2c1cc1n(c2=O)Cc2cc3c(CN(C)C)c(O)ccc3nc2-1,> 3,> 3,> 3,0.281,< 0.00949,103,85.4,83.8,74.8,77.5,74.2,99.4,84.3,74,68.8,71.4,64.2,74.3,76.5,68.8,"viability, T/C [16]: 66.7%; viability, T/C [17]: 65.6%; viability, T/C [18]: 54.7%; viability, T/C [19]: 59.3%; viability, T/C [20]: 58.4%; viability, T/C [21]: 56.2%; viability, T/C [22]: 50.7%; viability, T/C [23]: 39.6%; viability, T/C [24]: 41.4%; viability, T/C [25]: 16.4%; viability, T/C [26]: 16.9%; viability, T/C [27]: 12.9%; viability, T/C [28]: 17.1%; viability, T/C [29]: 18.6%; viability, T/C [30]: 11.3%"
